Assay results reported in ChEMBL document CHEMBL3228023, “Paradoxical effects of N-cyanoalkyl substituents upon the activities of several classes of opioids” (J Med Chem, 1979).
Where a name gives a salt, the structure may show the parent alone. Calls of active or inactive are those of the source. No cut-off for these calls is given here.

Key:
Mus musculus [1] = experiment: Antinociceptive activity in mouse at 100 mg/kg, sc by Eddy-hot plate assay; type: functional, organism-based; set-up: dose 100 mg/kg
Rhesus monkey [2] = experiment: Narcotic antagonist activity in rhesus monkey at 0.32 to 1.28 mg/kg by precipitated withdrawal test; type: organism-based, Macaca mulatta; set-up: dose 0.32-1.28 mg/kg; conditions: in vivo
[3] = Binding affinity to opiate receptor in mouse/rat NG108-15 hybrid cells
[4] = Therapeutic ratio of LD50 for sc dosed mouse to ED50 for antinociceptive activity in sc dosed mouse by Eddy-hot plate assay; conditions: in vivo
Mus musculus [5] = experiment: Antinociceptive activity in sc dosed mouse by Eddy-hot plate assay; type: functional
Rhesus monkey [6] = experiment: Physical dependence capacity in rhesus monkey at 0.16 to 2.56 mg/kg by single-dose suppression test; type: ADME, organism-based, Macaca mulatta; set-up: dose 0.16-2.56 mg/kg; conditions: in vivo
Rhesus monkey [7] = experiment: Acute toxicity in rhesus monkey assessed as ataxia at 0.32 to 2.56 mg/kg by single-dose suppression test; type: organism-based, Macaca mulatta; set-up: dose 0.32-2.56 mg/kg; conditions: in vivo
Rhesus monkey [8] = experiment: Acute toxicity in rhesus monkey assessed as rigidity at 2.56 mg/kg by single-dose suppression test; type: organism-based, Macaca mulatta; set-up: dose 2.56 mg/kg; conditions: in vivo
Mus musculus [9] = experiment: Antinociceptive activity in sc dosed mouse by Nilsen assay; type: functional
Opioid receptor = Opioid receptor (Rattus norvegicus, UniProt P33533+P34975+P33535); experiment: Binding affinity to opiate receptor in rat brain homogenates; type: tissue-based
Rhesus monkey [10] = experiment: Acute toxicity in rhesus monkey assessed as tremors at 0.64 to 2.56 mg/kg by single-dose suppression test; type: organism-based, Macaca mulatta; set-up: dose 0.64-2.56 mg/kg; conditions: in vivo
[11] = Acute toxicity in sc dosed mouse; type: organism-based; conditions: in vivo
Rhesus monkey [12] = experiment: Acute toxicity in rhesus monkey assessed as salivation at 0.005 to 0.02 mg/kg by single-dose suppression test; type: organism-based, Macaca mulatta; set-up: dose 0.005-0.02 mg/kg; conditions: in vivo
Rhesus monkey [13] = experiment: Acute toxicity in rhesus monkey assessed as exacerbation of withdrawal at 0.005 to 0.04 mg/kg by single-dose suppression test; type: organism-based, Macaca mulatta; set-up: dose 0.005-0.04 mg/kg; conditions: in vivo
Rhesus monkey [14] = experiment: Narcotic antagonist activity in rhesus monkey […]; type: organism-based, Macaca mulatta; conditions: in vivo
Rhesus monkey [15] = experiment: Acute toxicity in rhesus monkey assessed as minimal CNS depression at 1.5 to 36 mg/kg by single-dose suppression test; type: organism-based, Macaca mulatta, Central nervous system; set-up: dose 1.5-36 mg/kg; conditions: in vivo
Rhesus monkey [16] = experiment: Acute toxicity in rhesus monkey assessed as tremors at 36 mg/kg by single-dose suppression test; type: organism-based, Macaca mulatta; set-up: dose 36 mg/kg; conditions: in vivo
Rhesus monkey [17] = experiment: Acute toxicity in rhesus monkey assessed as withdrawal signs at 96 mg/kg by single-dose suppression test; type: organism-based, Macaca mulatta; set-up: dose 96 mg/kg; conditions: in vivo
Rhesus monkey [18] = experiment: Acute toxicity in rhesus monkey assessed as withdrawal signs at 24 to 96 mg/kg by precipitated withdrawal test; type: organism-based, Macaca mulatta; set-up: dose 24-96 mg/kg; conditions: in vivo
Mus musculus [19] = experiment: Antinociceptive activity in mouse at 100 mg/kg, sc by Nilsen assay; type: functional, organism-based; set-up: dose 100 mg/kg
Rhesus monkey [20] = experiment: Acute toxicity in rhesus monkey at 10 to 40 mg/kg by single-dose suppression test; type: organism-based, Macaca mulatta; set-up: dose 10-40 mg/kg; conditions: in vivo
Mus musculus [21] = organism: Mus musculus
Rhesus monkey [22] = experiment: Acute toxicity in rhesus monkey at 3 to 12 mg/kg by single-dose suppression test; type: organism-based, Macaca mulatta; set-up: dose 3-12 mg/kg; conditions: in vivo
Rhesus monkey [23] = experiment: Physical dependence capacity in rhesus monkey at 12 mg/kg by single-dose suppression test; type: ADME, organism-based, Macaca mulatta; set-up: dose 12 mg/kg; conditions: in vivo
[24] = Mus musculus, sc, read-out: ED50

N#CCCN1CC[C@]23CCCCC2C1Cc1ccc(O)cc13 (single isomer, unassigned; (+))
Activity (Mus musculus [1]): inactive

C[C@H]1C2Cc3ccc(O)cc3C1(C)CCN2CCC#N (single isomer, unassigned; (-))
Activity (Rhesus monkey [2]): Toxic | EC50 [3]: 80 nM | selectivity ratio [4]: 13000 | ED50 (Mus musculus [5]): 0.11 µmol/kg | Activity (Rhesus monkey [6]): Non-toxic | Activity (Rhesus monkey [7]): Toxic | Activity (Rhesus monkey [8]): Toxic | ED50 (Mus musculus [9]): 0.03 µmol/kg | EC50 (Opioid receptor): 3000 nM | Activity (Rhesus monkey [10]): Toxic

Br.C[C@H]1C2Cc3ccc(O)cc3C1(C)CCN2CCC#N (single isomer, unassigned; (-))
LD50 [11]: 489 mg/kg

N#CCCN1CC[C@]23CCCCC2C1Cc1ccc(O)cc13 (single isomer, unassigned; (-))
EC50 [3]: 15 nM | selectivity ratio [4]: 23000 | ED50 (Mus musculus [5]; [24]): 0.07 µmol/kg | Activity (Rhesus monkey [12]): Toxic | ED50 (Mus musculus [9]; [24]): 0.14 µmol/kg | EC50 (Opioid receptor): 1500 nM | Activity (Rhesus monkey [13]): Toxic

N#CCN1CC[C@]23CCCCC2C1Cc1ccc(O)cc13 (single isomer, unassigned; (-))
ED50 (Mus musculus [5]; [24]): 5.3 µmol/kg | ED50 (Mus musculus [9]; [24]): 13.2 µmol/kg | EC50 (Opioid receptor): 7000 nM

N#CCCN1CC[C@]23c4c5ccc(O)c4O[C@H]2[C@@H](O)C=CC3C1C5 (single isomer, unassigned; (-))
EC50 [3]: 1000 nM | Activity (Rhesus monkey [14]): Toxic | Activity (Rhesus monkey [15]): Toxic | ED50 (Mus musculus [5]; [24]): 8.3 µmol/kg | ED50 (Mus musculus [9]; [24]): 33 µmol/kg | EC50 (Opioid receptor): 20000 nM | Activity (Rhesus monkey [16]): Toxic

COc1ccc2c3c1O[C@H]1[C@@H](O)C=CC4C(C2)N(CCC#N)CC[C@@]341 (single isomer, unassigned; (-))
Activity (Rhesus monkey [17]): Toxic | Activity (Rhesus monkey [18]): Toxic | EC50 (Opioid receptor): 700000 nM

COc1ccc2c3c1O[C@H]1C(=O)CC[C@@]4(O)C(C2)N(CCC#N)CC[C@]314 (single isomer, unassigned; (-))
Activity (Mus musculus [19]): inactive | Activity (Rhesus monkey [20]): Non-toxic | ED50 (Mus musculus [21]): inactive | EC50 (Opioid receptor): 60000 nM

Br.CC1C2Cc3ccc(O)cc3C1(C)CCN2C (single isomer, unassigned; (-))
EC50 [3]: 400 nM | ED50 (Mus musculus [5]; [24]): 2 µmol/kg | ED50 (Mus musculus [9]; [24]): 1.5 µmol/kg | EC50 (Opioid receptor): 4000 nM

COc1ccc2c3c1O[C@H]1[C@@H](O)C=C[C@H]4[C@@H](C2)N(C)CC[C@@]341.COc1ccc2c3c1O[C@H]1[C@@H](O)C=C[C@H]4[C@@H](C2)N(C)CC[C@@]341.O.O=P(O)(O)O.O=P(O)(O)O [CODEINE PHOSPHATE]
ED50 (Mus musculus [5]; [24]): 14.6 µmol/kg | ED50 (Mus musculus [9]; [24]): 20.4 µmol/kg | Activity (Rhesus monkey [22]): Toxic | Activity (Rhesus monkey [23]): Toxic

CN1CC[C@]23c4c5ccc(O)c4O[C@H]2C(=O)CC[C@@]3(O)[C@H]1C5 [OXYMORPHONE HYDROCHLORIDE]
ED50 (Mus musculus [5]; [24]): 0.27 µmol/kg
